According to patent US20100324147A1, “ARYLCYCLOPROPYLAMINES AND METHODS OF USE” (priority 2009, published 2010):

Experiments:
Assay type in all cases: biochemical
Conditions in all cases: for Ki: inhibitor concentration that yields half the maximal rate of inactivation; for kinact: maximal rate of inactivation
LSD1 = LSD1 (Homo sapiens, UniProt O60341); assay: HRP-coupled amine oxidase assay, time-dependent inactivation of LSD1
Method: (§1) For example, in vitro enzymatic assays may be performed in which hydrogen peroxide generated from reoxidation of the FAD cofactor by molecular oxygen by LSD1 or MAOs is monitored, e.g., using a horseradish peroxidase (HRP) coupled assay. The enzyme may be incubated with an appropriate peptide substrate that includes a dimethylated lysine residue, as well as an arylcyclopropylamine compound of the invention. A fluorogenic substrate may be included in the reaction, which upon reaction with H2O2 produced by the enzyme produces a fluorescent substrate that may be detected. Inhibition kinetics may then be determined by appropriate fitting of the data.
The C-terminal GYG was added to allow for quantification of the peptide concentration.
(§2) The peroxide production generated from reoxidation of the FAD cofactor by molecular oxygen by LSD1 or MAOs was monitored using a horseradish peroxidase (HRP) coupled assay (FIG. 1). Amplex red was used as the fluorogenic electron acceptor and the fluorescence (excitation 560 nm, emission 590 nm) was measured using a Molecular Devices Spectra Max Gemini EM plate reader. The inhibition kinetics were determined by fitting the progress curves to eq. 1 describing time-dependent inactivation to determine kobs:
(§3) product=(vi/kobs)(1−e^−k^obs^t) (1)
(§4) where vi is the initial rate prior to inactivation, t is time and kobs is the observed rate of inactivation. The resulting values were plotted as a function of inhibitor concentration to obtain values of Ki and kinact according to eq. 2.
(§5) where kinact is the maximal rate of inactivation and Ki is the inhibitor concentration that yields half that rate of inactivation.

MAO B = molecular target: T1, MAO B (Homo sapiens, UniProt P27338); assay: HRP-coupled amine oxidase assay, time-dependent inactivation of MAO B
T1 sequence (P27338 1-520): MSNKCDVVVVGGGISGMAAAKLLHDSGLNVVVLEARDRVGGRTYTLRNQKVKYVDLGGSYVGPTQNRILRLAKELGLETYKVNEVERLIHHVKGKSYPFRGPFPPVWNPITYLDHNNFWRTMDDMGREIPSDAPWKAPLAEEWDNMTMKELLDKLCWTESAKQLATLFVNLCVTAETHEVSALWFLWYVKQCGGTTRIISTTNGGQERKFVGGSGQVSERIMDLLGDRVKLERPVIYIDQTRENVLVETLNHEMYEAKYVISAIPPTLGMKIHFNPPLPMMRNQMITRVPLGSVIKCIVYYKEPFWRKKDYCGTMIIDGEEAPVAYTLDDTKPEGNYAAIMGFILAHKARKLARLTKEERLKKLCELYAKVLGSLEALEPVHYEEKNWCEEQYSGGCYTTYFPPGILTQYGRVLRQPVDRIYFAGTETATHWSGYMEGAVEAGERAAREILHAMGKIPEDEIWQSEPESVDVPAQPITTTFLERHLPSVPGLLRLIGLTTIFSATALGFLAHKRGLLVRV
Method: as §1, §2, §3, §4, §5

MAO A = molecular target: T2, MAO A (Homo sapiens, UniProt P21397); assay: HRP-coupled amine oxidase assay, time-dependent inactivation of MAO A
T2 sequence (P21397 1-527): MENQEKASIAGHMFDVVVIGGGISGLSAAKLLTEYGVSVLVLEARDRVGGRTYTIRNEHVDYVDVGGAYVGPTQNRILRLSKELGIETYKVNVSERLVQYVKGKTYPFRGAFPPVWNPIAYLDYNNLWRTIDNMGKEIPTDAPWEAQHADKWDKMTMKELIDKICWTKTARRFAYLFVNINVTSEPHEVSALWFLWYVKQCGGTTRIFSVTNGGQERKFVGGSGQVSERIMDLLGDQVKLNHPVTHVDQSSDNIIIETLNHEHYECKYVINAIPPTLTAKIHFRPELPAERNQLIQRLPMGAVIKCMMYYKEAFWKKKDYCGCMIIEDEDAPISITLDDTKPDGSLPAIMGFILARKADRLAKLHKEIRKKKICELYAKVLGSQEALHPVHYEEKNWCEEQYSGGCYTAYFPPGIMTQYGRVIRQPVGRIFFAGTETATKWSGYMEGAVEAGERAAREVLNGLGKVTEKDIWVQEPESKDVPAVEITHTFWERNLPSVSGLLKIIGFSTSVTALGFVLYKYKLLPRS
Method: as §1, §2, §3, §4, §5

Row | Compound | kinact/KI (LSD1) [M⁻¹ s⁻¹] | Ki (LSD1) [µM] | kinact (LSD1) [s⁻¹] | kinact/KI (MAO B) [M⁻¹ s⁻¹] | Ki (MAO B) [µM] | kinact (MAO B) [s⁻¹] | kinact/KI (MAO A) [M⁻¹ s⁻¹] | Ki (MAO A) [µM] | kinact (MAO A) [s⁻¹]
1 | NC1CC1c1cccc(OCc2ccccc2)c1 (stereo not shown) [compound 4] | 33 | 760 ± 280 | – | – | – | – | – | – | –
2 | CCOc1ccc(C2CC2N)cc1 (stereo not shown) [compound 1] | 45 | 456 ± 86 | 0.0204 ± 0.0018 | 762 | 63 ± 10 | 0.048 ± 0.004 | 3140 | 4.3 ± 0.8 | 0.0135 ± 0.0004
3 | CC(C)(C)c1ccc(Sc2ccc(C3CC3N)cc2)cc1 (stereo not shown) [compound 5] | 40 | – | 0.0215 ± 0.003 | – | – | – | – | – | –
4 | CC(C)Oc1ccc(C2CC2N)cc1 (stereo not shown) [compound 2] | 54 | 352 ± 76 | 0.0192 ± 0.0017 | 383 | 106 ± 20 | 0.046 ± 0.006 | 1320 | 19.7 ± 4.6 | 0.026 ± 0.002
5 | NC1CC1c1ccc(Oc2ccccc2)cc1 (stereo not shown) [compound 3] | – | – | – | 1100 | 29.5 ± 4.4 | 0.0623 ± 0.0018 | 5720 | 12.4 ± 4.3 | 0.071 ± 0.007
